Assay results: patent US7612071B2, “Compositions and methods employing aminopterin” (Syntrix Biosystems, Inc., priority 2004, dated 2009)
Where two headings read alike, the source gives them in different places.

Columns and labels:
[1] = MTX 15-25 mg/m^2 PO, n=22, prior art; cited from earlier work
[2] = MTX 15-25 mg/m^2 PO, n=38, prior art; cited from earlier work
[3] = oral doses greater than about 7.5 mg/m^2; cited from earlier work
[4] = mice, 4 weekly ip doses (aminopterin 0.03 mg/kg, methotrexate 0.3 mg/kg); days 1 and 22 after last dose
[5] = tested on: standard and high-risk ALL; details: for Toxicity Component: Antifolate dose causing 5.8% of the population to have the toxicity: Elevations in liver enzymes >5 times normal (severe hepatotoxicity)
[6] = MTX 15-25 mg/m^2, pediatric patients, n=22, prior art; cited from earlier work
[7] = AMT 2 mg/m^2 PO x 2 (n=75), MTX 25 mg/m^2 PO x 4 (n=41)
[8] = AMT 2 mg/m^2 PO x 2 (n=81), MTX 25 mg/m^2 PO x 4 (n=42)
[9] = AMT 2 mg/m^2 PO x 2 (n=104), MTX 25 mg/m^2 PO x 4 (n=63)

Compound: CN(Cc1cnc2nc(N)nc(N)c2n1)c1ccc(C(=O)N[C@@H](CCC(=O)O)C(=O)O)cc1 [MTX, methotrexate, reference compound]
- Interpatient coefficient of variation of oral bioavailability [1]: 59%
- Mean intrapatient coefficient of variation of oral bioavailability [2]: 34%
- oral bioavailability [3]: ≤ 44%
- antifolate content in liver, aminopterin vs methotrexate [4]: no different
- Event-free survival (EFS) at 24-months, Kaplan Meier ([5]; 25 high risk patients receiving aminopterin, standard risk patients receiving methotrexate): 86%
- Coefficient of variation of toxicity, absolute neutrophil count in consolidation [5, 7]: 85%
- Mean absolute neutrophil count in consolidation [5, 7]: 1919 cells/μL
- Coefficient of variation of toxicity, platelet counts in consolidation [5, 8]: 47%
- Mean platelet counts in consolidation [5, 8]: 312 cells × 10^3/μL
- Coefficient of variation of toxicity, level of liver enzymes above normal [5, 9]: 36%
- Mean level of liver enzymes above normal [5, 9]: 177 IU/L ALT
- Coefficient of variation of toxicity, level of liver enzymes above normal ([5]; AMT 2 mg/m^2 PO x 2 (n=104), MTX 25 mg/m^2 PO x 4 (n=63), listed as methotrexate): 36%
- Toxicity Component: Antifolate dose with same toxicity as MTX at 100 mg/m^2/wk ([5]; Any elevation of liver enzymes): 100 mg/m^2/wk
- Toxicity Component: Antifolate dose causing 5.8% of the population to have the toxicity [5]: <100 mg/m^2/wk
- Toxicity Component: Antifolate dose causing 5.8% of the population to have the toxicity ([5]; listed as methotrexate): less than 100 mg/m^2/wk
- Toxicity Component: Antifolate dose with same toxicity as MTX at 100 mg/m^2/wk ([5]; Hospital admissions): 100 mg/m^2/wk
- Toxicity Component: Antifolate dose with same toxicity as MTX at 100 mg/m^2/wk ([5]; Mucositis): 100 mg/m^2/wk
- Toxicity Component: Antifolate dose with same toxicity as MTX at 100 mg/m^2/wk ([5]; Myelosuppression): 100 mg/m^2/wk
- Toxicity Component: Antifolate dose with same toxicity as MTX at 100 mg/m^2/wk ([5]; Neutropenia): 100 mg/m^2/wk
- Toxicity Component: Antifolate dose with same toxicity as MTX at 100 mg/m^2/wk ([5]; Thrombocytopenia): 100 mg/m^2/wk
- Toxicity Component: Antifolate dose with same toxicity as MTX at 100 mg/m^2/wk ([5]; Treatment interruptions): 100 mg/m^2/wk
- Toxicity Component: Antifolate dose with same toxicity as MTX at 100 mg/m^2/wk ([5]; eAMT and eMTX (marrow exposure)): 100 mg/m^2/wk
- Interpatient oral bioavailability (%) [6]: 44%
- Maximum (%) oral bioavailability [6]: 95%
- Minimum (%) oral bioavailability [6]: 6%
